According to ChEMBL document CHEMBL5120920, “A Mitochondria-Targeted Phenylbutyric Acid Prodrug Confers Drastically Improved Anticancer Activities” (J Med Chem, 2022):
pIC50: −log10 of the molar value. Active and inactive are the calls of the source. No cut-off for these calls is given here.

What was measured:
A-375 [1] = assay: Induction of cell cycle arrest in human A-375 cells assessed as accumulation at G1 phase at 7.5 uM incubated for 24 hrs by PI staining based flow cytometry analysis (reference value: 68.07 %); assay type: functional
A-375 [2] = assay: Induction of cell cycle arrest in human A-375 cells assessed as accumulation at G1 phase at 5 uM incubated for 24 hrs by PI staining based flow cytometry analysis (reference value: 68.07 %); assay type: functional
A549 = assay: Antiproliferative activity against human A549 cells assessed as inhibition of cell viability incubated for 72 hrs by MTT assay; assay type: functional, cell-based; details: A549, 72 h
[3] = Toxicity in BALB/c mouse assessed as animal death at 50 to 100 mg/kg, […] measured after 7 days; assay type: organism-based; details: in vivo, 168 h, dose 50-100 mg/kg, time 7 day
[4] = Toxicity in BALB/c mouse assessed as histopathological changes in spleen at 50 to 100 mg/kg, iv measured after 7 days by H and E staining based assay; assay type: organism-based; details: in vivo, 168 h, dose 50-100 mg/kg, time 7 day
[5] = Toxicity in BALB/c mouse assessed as histopathological changes in liver at 50 to 100 mg/kg, iv measured after 7 days by H and E staining based assay; assay type: organism-based; details: in vivo, 168 h, dose 50-100 mg/kg, time 7 day
[6] = Toxicity in BALB/c mouse assessed as histopathological changes in lung at 50 to 100 mg/kg, iv measured after 7 days by H and E staining based assay; assay type: organism-based; details: in vivo, 168 h, dose 50-100 mg/kg, time 7 day
[7] = Toxicity in BALB/c mouse assessed as histopathological changes in kidney at 50 to 100 mg/kg, iv measured after 7 days by H and E staining based assay; assay type: organism-based; details: in vivo, 168 h, dose 50-100 mg/kg, time 7 day
[8] = Toxicity in BALB/c mouse assessed as histopathological changes in heart at 50 to 100 mg/kg, iv measured after 7 days by H and E staining based assay; assay type: organism-based; details: in vivo, 168 h, dose 50-100 mg/kg, time 7 day
[9] = Metabolic stability in Sprague-Dawley rat plasma assessed as elimination half life by LC-MS/MS analysis; assay type: ADME, cell-free; details: read-out: beta t1/2
A-375 [10] = assay: Cytotoxicity against human A-375 cells assessed as reduction in cell vaibility measured at 72 hrs in presence of BNPP by MTT assay; assay type: functional, cell-based; details: A-375, 72 h
[11] = Drug uptake in human A-375 cells measured at 10 mins by RP-HPLC-UV analysis; assay type: ADME, cell-based; details: a-375, 10 min
[12] = Efflux ratio of apparent permeability from basolateral to apical side over apical to basolateral side in human Caco2 cells by LC-MS/MS analysis; assay type: ADME, cell-based; details: Caco-2
[13] = biological target: Histone deacetylase (Homo sapiens) (UniProt Q13547+O15379+Q9UBN7+Q92769+Q9UQL6+Q8WUI4+Q9BY41+Q96DB2+P56524+Q9UKV0+Q969S8); assay: Inhibition of HDAC in human A-375 cells assessed as upregulation of alpha-tubulin acetylation at 5 to 20 uM measured after 24 hrs; assay type: cell-based; details: dose 5-20 µM
MDA-MB-231 = assay: Induction of mitochondrial membrane hyperpolarization in human MDA-MB-231 cells assessed as JC-1 level at 2.5 to 10 uM incubated for 4 hrs by JC-1 staining based flow cytometry analysis relative to control; assay type: functional; details: dose 2.5-10 µM
A-375 [14] = assay: Induction of mitochondrial membrane depolarization in human A-375 cells assessed as reduction in red fluorescence intensity incubated for 4 hrs by TMRM staining based fluorescence microscopy analysis; assay type: functional, cell-based; details: dose 2.5-10 µM, DDE = dose-dependent effect
A-375 [15] = assay: Induction of mitochondrial membrane depolarization in human A-375 cells assessed as increase in JC-1 monomer incubated for 4 hrs by JC-1 staining based flow cytometry analysis; assay type: functional, cell-based; details: dose 2.5-10 µM, DDE = dose-dependent effect
A-375 [16] = assay: Inhibition of colony formation in human A-375 cells preincubated for 72 hrs followed by drug free medium addition for 10 to 14 days by crystal violet staining based analysis; assay type: functional, cell-based; details: dose 0.5-1 µM, DDE = dose-dependent effect
A-375 [17] = assay: Induction of apoptosis in human A-375 cells assessed as apoptotic cells at 2.5 uM measured after 48 hrs by Annexin V FITC/PI staining based flow cytometry analysis relative to control; assay type: functional
A-375 [18] = assay: Induction of apoptosis in human A-375 cells assessed as apoptotic cells at 5 uM measured after 48 hrs by Annexin V FITC/PI staining based flow cytometry analysis relative to control; assay type: functional
A-375 [19] = assay: Induction of apoptosis in human A-375 cells assessed as apoptotic cells at 10 uM measured after 48 hrs by Annexin V FITC/PI staining based flow cytometry analysis relative to control; assay type: functional
A-375 [20] = assay: Induction of apoptosis in human A-375 cells assessed as apoptotic cells at 10 uM measured at 24 hrs by Annexin V FITC/PI staining based flow cytometry analysis relative to control; assay type: functional
A-375 [21] = assay: Induction of apoptosis in human A-375 cells assessed as apoptotic cells at 10 uM measured at 72 hrs by Annexin V FITC/PI staining based flow cytometry analysis relative to control; assay type: functional
A-375 [22] = assay: Induction of cell cycle arrest in human A-375 cells assessed as accumulation at S phase at 5 uM incubated for 24 hrs by PI staining based flow cytometry analysis (reference value: 24.01 %); assay type: functional
A-375 [23] = assay: Induction of cell cycle arrest in human A-375 cells assessed as accumulation at G2 phase at 2.5 uM incubated for 24 hrs by PI staining based flow cytometry analysis (reference value: 7.92 %); assay type: functional
A-375 [24] = assay: Induction of cell cycle arrest in human A-375 cells assessed as accumulation at G2 phase at 5 uM incubated for 24 hrs by PI staining based flow cytometry analysis (reference value: 7.92 %); assay type: functional
A-375 [25] = assay: Inhibition of cell migration in human A-375 cells incubated for 24 hrs by wound healing assay; assay type: functional, cell-based; details: dose 1.5-2.5 µM, DDE = dose-dependent effect
A-375 [26] = assay: Induction of mitochondrial damage in human A-375 cells assessed as decrease in oxygen consumption rate at 5 uM measured after 4 hrs; assay type: functional, cell-based
A-375 [27] = assay: Inhibition of glycolysis in human A-375 cells assessed as reduction in extracellular acidification rate at 0.25 to 5 uM measured after 4 hrs; assay type: functional, cell-based; details: dose 0.25-5 µM
A-375 [28] = assay: Effect on mitochondrial bio-energestics in human A-375 cells assessed as increase in OCR/ECRA ratio at 0.25 to 1 uM measured after 4 hrs; assay type: functional, cell-based; details: dose 0.25-1 µM
[29] = Toxicity in nude mouse xenografted with human A-375 cells assessed as body weight loss at 10 to 40 mg/kg, ip measured once every two days for 14 days; assay type: organism-based; details: in vivo, 336 h, dose 10-40 mg/kg, time 14 day
A-375 [30] = assay: Antitumor activity against human A-375 cells xenografted in nude mouse assessed as tumor inhibition ratio at 40 mg/kg, ip measured once every two days for 14 days; assay type: functional; details: A-375, 336 h, time 14 day, read-out: TGI
[31] = Toxicity in BALB/c mouse assessed as change in body weight at 40 mg/kg, iv measured once every two days for 7 days; assay type: organism-based; details: in vivo, 168 h, time 7 day
A-375 [32] = assay: Antitumor activity against human A-375 cells implanted in BALB/c mouse assessed as shrinkage of tumor tissue at 40 mg/kg, ip measured once every two days for 14 days; assay type: functional, organism-based; details: time 14.0 day

O=C(CCCCCCCCC[P+](c1ccc(C(F)(F)F)cc1)(c1ccc(C(F)(F)F)cc1)c1ccc(C(F)(F)F)cc1)NC(COC(=O)CCCc1ccccc1)(COC(=O)CCCc1ccccc1)COC(=O)CCCc1ccccc1.[Br-]
Activity (A-375 [1]): 80.37%
Activity (A-375 [2]): 75.69%
pIC50 (A549): 5.33
Activity [3]: Non-Toxic
Activity [4]: Non-Toxic
Activity [5]: Non-Toxic
Activity [6]: Non-Toxic
Activity [7]: Non-Toxic
Activity [8]: Non-Toxic
half-life [9]: 4.28 h
pIC50 (A-375 [10]): 4.85
Drug uptake [11]: Active
efflux ratio [12]: 0.69
inhibition [13]: Active
Activity (MDA-MB-231): 3.27%
Activity (A-375 [14]): Dde
Activity (A-375 [15]): Dde
inhibition (A-375 [16]): Dde
Activity (A-375 [17]): 6%
Activity (A-375 [18]): 12%
Activity (A-375 [19]): 50%
Activity (A-375 [20]): 7%
Activity (A-375 [21]): 77%
Activity (A-375 [22]): 15.46%
Activity (A-375 [23]): 8.58%
Activity (A-375 [24]): 8.85%
inhibition (A-375 [25]): Dde
Activity (A-375 [26]): Active
inhibition (A-375 [27]): Active
Activity (A-375 [28]): Active
Activity [29]: Non-Toxic
inhibition in vivo at 40 mg/kg (A-375 [30]): 76%
Activity [31]: Non-Toxic
Activity (A-375 [32]): Active
